# Experimental data from a melting point compilation (Tetko et al.).
row,Compound,melting point [°C]
1,O=C(Nc1ccc(F)cc1)NC1CCNC1 (centres undefined),150 to 152
2,NS(=O)(=O)c1ccccc1OC(F)F,133 to 135
3,CN(C)c1ccc(C2=CCNC2)cc1,99 to 101
4,CCCS(=O)(=O)NC(C)C(=O)O (centres undefined),64 to 66
5,O=C(O)CCNS(=O)(=O)c1ccc(Cl)c([N+](=O)[O-])c1,113 to 115
6,CN1CC(C(=O)O)Cc2ccccc21 (centres undefined),209 to 211
7,NC(Cc1ccccc1)C(=O)Nc1ccccc1 (centres undefined),76 to 78
8,Cc1c(CCl)cc(C(=O)O)cc1CCl,157 to 159
9,O=C(CCl)Nc1cc(Cl)ccc1F,98 to 102
10,O=C(Nc1nncs1)C1CCNCC1,202 to 204
11,O=C(CCl)N1CCN(c2ncccn2)CC1,100 to 102
12,O=C(O)c1ccc(O)cc1F,202 to 204
13,CC(C)C(=O)Nc1ccc(O)cc1,158 to 160
14,CC(N)c1ccc(-c2cccnc2)cc1 (centres undefined),47 to 49
15,O=C1CC(C2CCCCN2)CN1 (centres undefined),62 to 64
16,NC(CC(=O)O)c1cccs1 (centres undefined),219 to 221
17,O=C(O)c1ccn(-c2ccccc2Cl)n1,187 to 189
18,O=C(O)/C=C/c1ccc2c(c1)CCO2,175 to 177
19,OCCC1CSCCN1 (centres undefined),86 to 88
20,C=CCOc1ccc(C(=O)c2ccccc2)c(O)c1,67 to 70
21,Cc1ccc(-c2nn(CCC#N)cc2C(=O)O)cc1C,174 to 176
22,NC(=NO)c1ccccc1CN1CCCCC1,114 to 116
23,O=C(CCl)Nc1cccc(C(=O)Nc2cccc(C(F)(F)F)c2)c1,197 to 199
24,CN(C)S(=O)(=O)c1cc(C(=O)O)ccc1Br,257 to 259

row,Compound,melting point [°C]
1,CC(C)(C)OC(=O)NCC1CNc2ccccc21 (centres undefined),80 to 82
2,NNc1nccc(N2CCOCC2)n1,146 to 148
3,O=C1CC2CCCC(C1)N2Cc1cccs1,88 to 90
4,COC(=O)C(C(=O)OC)c1ccc(C(F)(F)F)cc1[N+](=O)[O-],63 to 65
5,O=C(O)c1cccc(S(=O)(=O)Nc2ccc(OCc3ccccc3)cc2)c1,81 to 83
6,N#CCSc1ccc(C(=O)O)cc1,269 to 271
7,Nc1nc(CCl)nc2oc(-c3ccccc3)c(-c3ccccc3)c12,201 to 203
8,FC(F)(F)CN1CCNc2ccccc21,62 to 64
9,O=C(NC(C(=O)O)c1ccccc1)OCc1ccccc1 (centres undefined),130 to 132
10,c1ccc(CC2CCN(c3ncnc4sccc34)CC2)cc1,124 to 126
11,O=S(=O)(c1ccc(C(F)(F)F)cc1)N1CCNCC1,163 to 169
12,CC(C)CS(=O)(=O)CC(=O)O,46 to 48
13,C=CCn1c(C)nnc1S,264 to 266
14,Cn1c(-c2ccccc2)c(C(=O)O)c2ccccc21,192 to 194
15,CC1CC(C)CC2(C1)NC(=O)NC2=O (centres undefined),299 to 301
16,O=C1CCS(=O)CC1,62 to 64
17,CN(C)S(=O)(=O)c1ccc2c(c1)CCCN2,160 to 162
18,CC(=O)N1CC=C(c2ccc(O)cc2)CC1,188 to 190
19,NC(=O)c1ccc(Br)c(F)c1,167 to 169
20,N#Cc1cccc(C(=O)NCc2ccco2)c1,86 to 88
21,O=C(O)C(c1ccccc1F)N1CCOCC1 (centres undefined),189 to 191
22,O=C(Cc1ccc2ccccc2c1)NO,185 to 187
23,CC(C)(C)OC(=O)N1CCC(I)CC1,44 to 46
24,CCc1cccc2c(C(=O)CC#N)c[nH]c12,178 to 180

row,Compound,melting point [°C]
1,CC(=O)NC(C)(C)C(N)=NO,163 to 165
2,CC(C(=O)O)n1nnnc1C(C)(C)C (centres undefined),171 to 173
3,O=C(O)[C@@H]1CC(O)CN1C(=O)OCC1c2ccccc2-c2ccccc21 (some centres undefined),189 to 191
4,O=C(O)c1cc2c(F)cccc2[nH]1,209 to 211
5,CC(=O)Nc1ccc(S(=O)(=O)N2CCC(=O)CC2)cc1,145 to 147
6,O=Cc1c(-c2ccccc2)nc2ccccn12,144 to 146
7,O=S(=O)(O)C1CCCNC1 (centres undefined),304 to 306
8,CC(CC(=O)O)NC1=NS(=O)(=O)c2ccccc21 (centres undefined),245 to 247
9,Cn1cc(Br)c2cc[nH]c(=O)c21,195 to 197
10,NC(=O)c1ccoc1,174 to 176
11,CNC(=O)c1ccccc1O,83 to 85
12,Sc1nnc(NC2CCCCC2)s1,144 to 146
13,CC1(C)NC(=O)N(Cc2ccc(Cl)nc2)C1=O,127 to 129
14,O=C(O)c1cccc(CS(=O)(=O)c2ccccc2)c1,194 to 196
15,CC(=O)NCC1CCNCC1,97 to 99
16,O=C(O)c1ccn(C2CCCC2)n1,108 to 110
17,NCc1cccc(NC(=O)N2CCCC2)c1,128 to 130
18,CC(C)n1nnnc1S,89 to 91
19,CC(C)C(NC(N)=O)C(=O)O (centres undefined),203 to 207
20,N#Cc1c(N)nc2n1CCS2,216 to 218
21,O=c1cc(CCl)nc2sccn12,180 to 182
22,Cn1cc(Br)nn1,99 to 101
23,O=C(O)CNC(=O)c1cccc([N+](=O)[O-])c1,90 to 92
24,Nc1ccc(S(=O)(=O)NCC2CC2)cc1,109 to 111

row,Compound,melting point [°C]
1,NCC(O)c1ccc(Cl)s1 (centres undefined),74 to 76
2,CN1CC(N)C(=O)N1 (centres undefined),55 to 57
3,O=C1CCCC1c1ccc(Cl)c(Cl)c1 (centres undefined),63 to 65
4,Clc1cc(Cl)c(SSc2cc(Cl)c(Cl)cc2Cl)cc1Cl,140 to 144
5,O=C(Cc1ccc(Br)cc1)NC(C(=O)O)c1ccccc1 (centres undefined),177 to 179
6,CNC(=O)CNc1ccccc1C,112 to 114
7,COc1cc(F)c(S(=O)(=O)Cl)c(F)c1,53 to 55
8,Cc1cc(C(=O)CCl)c(C)n1-c1ncn[nH]1,180 to 182
9,O=Cc1cnc(Cl)nc1,118 to 120
10,O=C(O)CCOc1ccc(Br)cc1,145 to 147
11,CC1(O)CN(C(=O)OC(C)(C)C)C1,89 to 91
12,O=C(O)C1(Br)CCC1,40 to 42
13,O=C(O)c1n[nH]cc1[N+](=O)[O-],223 to 225
14,CC(=O)CCc1ccc2c(c1)OCO2,50 to 52
15,Nc1ccc(Cl)c(S(=O)(=O)N2CCOCC2)c1,157 to 159
16,O=C(O)c1cc(Br)c(S(=O)(=O)Cl)s1,129 to 131
17,COC(=O)c1ccc(C(=O)OC)c(NC(=O)C(C)Cl)c1 (centres undefined),128 to 130
18,CC1=CC(=O)N(C2CCCCC2)C1=O,99 to 101
19,O=C(O)c1nn(-c2ccccc2F)c2c1CCC2,194 to 196
20,O=Cc1cc(Cl)cc([N+](=O)[O-])c1O,105 to 107
21,O=C(Nc1cccc(NC(=O)c2ccco2)c1)OCC(F)(F)F,167 to 169

# The remaining lines, values ahead:
row,melting point [°C],Compound
1,57 to 59,Ic1cnc2ccccc2c1
2,77 to 79,CC(C)N1C(=O)C(=O)c2ccccc21
3,205 to 207,COc1ccc(C)cc1-c1csc(N)n1
4,199 to 203,O=C(O)c1cc(-c2cccc(Cl)c2)nc2nc(N3CCCCC3)sc12
5,84 to 86,CCNS(=O)(=O)c1ccccc1OC
6,229 to 231,Cc1[nH]c2c(Cl)cccc2c1C=O
7,228 to 230,Cc1ccc(S(=O)(=O)N(C)CC(=O)O)cc1
8,142 to 144,COc1ccc(Br)c(C(N)=S)c1
9,174 to 176,O=C(O)CNc1nc2ccccc2s1
10,69 to 71,Cc1ccc(Oc2ccc(C#N)cc2)cc1
11,40 to 42,Nc1cc(-c2ccco2)ccc1F
12,61 to 63,Cc1ccc(C)n1-c1ccc(CN)cc1
13,174 to 176,CCOc1cc(-c2ccccc2)sc1C(=O)O
14,163 to 165,COc1ccc(Br)cc1C(N)C(=O)O (centres undefined)
15,92 to 94,CC1CC1c1cc(N)n(-c2ccccc2)n1 (centres undefined)
16,245 to 247,Cc1ccccc1-n1ccnc1S
17,99 to 101,COC(=O)c1cc2ccccc2cc1N
18,149 to 151,Cc1nnc2ccc(Br)cn12
19,49 to 51,CCCOc1ccc(N)cc1Cl
20,89 to 91,COc1cc(Cl)ccc1S(=O)(=O)Cl
21,257 to 259,COc1cc(OC)c(S(N)(=O)=O)cc1Br
22,139 to 141,C/C(=N\O)c1ccc(-c2ccc(F)cc2)s1
23,142 to 144,Cc1nnc(Sc2ccc(N)c(C)c2)s1
24,220 to 222,Cc1cc(N)nc(Cl)n1
25,103 to 105,Nc1ccccc1C(=O)Nc1ccc(F)cc1Cl
26,139 to 141,Nc1ccc(Cl)cc1C(=O)N1CCCC1

row,melting point [°C],Compound
1,195 to 197,COc1cc(-c2cc(C(=O)O)c3ccccc3n2)cc(OC)c1OC
2,155 to 157,O=Cc1cc(Cl)cc2cccnc12
3,181 to 183,Nc1nc(-c2ccccc2)c(-c2ccccc2)s1
4,145 to 147,CC(=O)N(c1ccc(Cl)cc1)c1nc(CCl)cs1
5,278 to 280,N#Cc1cn(-c2ccc([N+](=O)[O-])cc2)nc1N
6,88 to 92,COCc1ccc(C(=O)O)cc1
7,153 to 155,Clc1ccc(Cc2nn[nH]n2)cc1Cl
8,138 to 140,Cc1ccc(S(N)(=O)=O)c(F)c1
9,99 to 101,COC(=O)N(C)c1ccc(O)cc1
10,237 to 239,COc1ccc(C2(c3ccc(OC)cc3)NC(=O)NC2=O)cc1
11,41 to 43,COc1cc(CC#N)ccc1SC(F)F
12,110 to 112,CC(Cl)c1nc2cc(Cl)ccc2n1Cc1ccccc1 (centres undefined)
13,208 to 210,Nc1ccc2nc(S)oc2c1
14,113 to 115,COC(=O)COc1ccc(O)cc1
15,62 to 64,Cc1cc(OCCO)ccc1N
16,324 to 327,Cc1cc(O)cc(O)n1
17,201 to 203,Cc1ccc(NC(=O)Nc2ccccc2)cc1N
18,179 to 181,NNc1nc(-c2ccc(Cl)cc2)no1
19,106 to 108,Cc1cc(CN2CCSCC2)ccc1N
20,204 to 206,CCCc1noc2nc(-c3ccco3)cc(C(=O)O)c12
21,97 to 99,O=C(O)Cc1csc(-c2ccc(O)cc2)n1
22,140 to 142,CCOC(=O)/C(C#N)=C/Nc1cc(OC)cc(OC)c1
23,120 to 122,Nc1ccc2oc(C(F)(F)F)nc2c1
24,137 to 139,Cc1cc(C)n(Cc2cccc(C(N)=NO)c2)n1
25,152 to 154,COc1cccc(C(=O)O)c1OC(F)F
